The source made the active and inactive calls. The rule behind the calls is not given here.
Experiments:
[1] = AUC (0 to t) in BALB/c mouse at 2 mg/kg, iv by LC/MS-MS analysis; assay type: ADME, organism-based; parameters: dose 2 mg/kg; conditions: in vivo
Mus musculus [2] = test: Hepatoprotective activity in LPS/D-GalN-induced fulminant hepatic failure BALB/c mouse model assessed as inhibition of serum AST level at 200 mg/kg, IG once daily for 3 days; assay type: functional, organism-based; conditions: time 3.0 day
[3] = Metabolic stability in human liver microsomes assessed as half life in presence of NADPH by LC-MS analysis; assay type: ADME, Microsome
[4] = Tmax in BALB/c mouse at 2 mg/kg, iv by LC/MS-MS analysis; assay type: ADME, organism-based; conditions: in vivo
[5] = Bioavailability in BALB/c mouse at 10 mg/kg, po by LC/MS-MS analysis; assay type: ADME, organism-based; conditions: in vivo
[6] = AUC (0 to t) in BALB/c mouse at 10 mg/kg, po by LC/MS-MS analysis; assay type: ADME, organism-based; parameters: dose 10 mg/kg; conditions: in vivo
Mus musculus [7] = test: Antiinflammatory activity against LPS/D-GalN-induced fulminant hepatic failure BALB/c mouse model assessed as inhibition of TNFalpha mRNA expression in liver at 200 mg/kg, IG once daily for 3 days by RT-PCR analysis; assay type: functional, organism-based; conditions: time 3.0 day
[8] = AUC (0 to infinity) in BALB/c mouse at 10 mg/kg, po by LC/MS-MS analysis; assay type: ADME, organism-based; parameters: route oral, time infinity, dose 10 mg/kg; conditions: in vivo
THP-1 [9] = test: Antiinflammatory activity in human THP-1 cells assessed as reduction in LPS-induced TNF alpha secretion at 10 uM incubated for 12 hrs measured by ELISA; assay type: functional, cell-based
[10] = Tmax in BALB/c mouse at 10 mg/kg, po by LC/MS-MS analysis; assay type: ADME, organism-based; conditions: in vivo
[11] = AUC (0 to infinity) in BALB/c mouse at 2 mg/kg, iv by LC/MS-MS analysis; assay type: ADME, organism-based; parameters: route intravenous, time infinity, dose 2 mg/kg; conditions: in vivo
Homo sapiens [12] = species on record: Homo sapiens; test: Effect on recombinant AMPK alpha2beta2gamma1 (unknown origin) phosphorylation
[13] = Half life in BALB/c mouse at 10 mg/kg, po by LC/MS-MS analysis; assay type: ADME, organism-based; conditions: in vivo
THP-1 [14] = test: Cytotoxicity against human THP-1 cells assessed as reduction in cell viability at 1 to 10 uM; assay type: cell-based; conditions: thp-1, 10 µM
[15] = Metabolic stability in mouse liver microsomes assessed as half life in presence of NADPH by LC-MS analysis; assay type: ADME, Microsome
[16] = Cmax in BALB/c mouse at 10 mg/kg, po by LC/MS-MS analysis; assay type: ADME, organism-based; parameters: route oral, dose 10 mg/kg; conditions: in vivo
[17] = Half life in BALB/c mouse at 2 mg/kg, iv by LC/MS-MS analysis; assay type: ADME, organism-based; conditions: in vivo
THP-1 [18] = test: Antiinflammatory activity in human THP-1 cells assessed as reduction in LPS-induced IL6 secretion at 10 uM incubated for 12 hrs measured by ELISA; assay type: functional, cell-based
Mus musculus [19] = test: Hepatoprotective activity in LPS/D-GalN-induced fulminant hepatic failure BALB/c mouse model assessed as changes in liver histology at 200 mg/kg, IG once daily for 3 days by H/E staining based analysis; assay type: functional, organism-based; conditions: time 3.0 day
[20] = Cmax in BALB/c mouse at 2 mg/kg, iv by LC/MS-MS analysis; assay type: ADME, organism-based; parameters: route intravenous, dose 2 mg/kg; conditions: in vivo
Mus musculus [21] = test: Antiinflammatory activity against LPS/D-GalN-induced fulminant hepatic failure BALB/c mouse model assessed as inhibition of IL-6 mRNA expression in liver at 200 mg/kg, IG once daily for 3 days by RT-PCR analysis; assay type: functional, organism-based; conditions: time 3.0 day
Homo sapiens [22] = species on record: Homo sapiens; test: Effect on recombinant AMPKalpha1beta1gamma1 (unknown origin) phosphorylation
Mus musculus [23] = test: Hepatoprotective activity in LPS/D-GalN-induced fulminant hepatic failure BALB/c mouse model assessed as inhibition of serum ALT level at 200 mg/kg, IG once daily for 3 days; assay type: functional, organism-based; conditions: time 3.0 day

## CC1(C)CC[C@]2(C(=O)O)CC[C@]3(C)C(=C2C1)CC[C@@H]1[C@@]2(C)CC[C@H](O[C@@H]4OC[C@H](O)[C@H](O)[C@H]4O)C(C)(C)[C@@H]2CC[C@]13C
[1]
  AUC(0-t): 1350 ng·h/mL
Mus musculus [2]
  Activity: Active
[3]
  half-life: > 120 min
[4]
  Tmax: 4.8 min
[5]
  bioavailability: 24.7%
[6]
  AUC(0-t): 1670 ng·h/mL
Mus musculus [7]
  Activity: Active
[8]
  AUC(0-inf): 1690 ng·h/mL
THP-1 [9]
  Activity: Active
[10]
  Tmax: 25.2 min
[11]
  AUC(0-inf): 1360 ng·h/mL
Homo sapiens [12]
  Activity: inactive
[13]
  half-life: 21 min
THP-1 [14]
  Activity: Non-Toxic
[15]
  half-life: > 120 min
[16]
  Cmax: 1840 ng/mL
[17]
  half-life: 21 min
THP-1 [18]
  Activity: Active
Mus musculus [19]
  Activity: Active
[20]
  Cmax: 4410 ng/mL
Mus musculus [21]
  Activity: Active
Homo sapiens [22]
  Activity: inactive
Mus musculus [23]
  Activity: Active

Source: ChEMBL document CHEMBL4732083, “Synthesis and anti-inflammatory activity of saponin derivatives of δ-oleanolic acid” (Eur J Med Chem, 2021)
